≈ marks a conversion by molar mass, not a printed value.
target: EGFR (UniProt P00533)
Sequence (P00533 whole entry, looked up): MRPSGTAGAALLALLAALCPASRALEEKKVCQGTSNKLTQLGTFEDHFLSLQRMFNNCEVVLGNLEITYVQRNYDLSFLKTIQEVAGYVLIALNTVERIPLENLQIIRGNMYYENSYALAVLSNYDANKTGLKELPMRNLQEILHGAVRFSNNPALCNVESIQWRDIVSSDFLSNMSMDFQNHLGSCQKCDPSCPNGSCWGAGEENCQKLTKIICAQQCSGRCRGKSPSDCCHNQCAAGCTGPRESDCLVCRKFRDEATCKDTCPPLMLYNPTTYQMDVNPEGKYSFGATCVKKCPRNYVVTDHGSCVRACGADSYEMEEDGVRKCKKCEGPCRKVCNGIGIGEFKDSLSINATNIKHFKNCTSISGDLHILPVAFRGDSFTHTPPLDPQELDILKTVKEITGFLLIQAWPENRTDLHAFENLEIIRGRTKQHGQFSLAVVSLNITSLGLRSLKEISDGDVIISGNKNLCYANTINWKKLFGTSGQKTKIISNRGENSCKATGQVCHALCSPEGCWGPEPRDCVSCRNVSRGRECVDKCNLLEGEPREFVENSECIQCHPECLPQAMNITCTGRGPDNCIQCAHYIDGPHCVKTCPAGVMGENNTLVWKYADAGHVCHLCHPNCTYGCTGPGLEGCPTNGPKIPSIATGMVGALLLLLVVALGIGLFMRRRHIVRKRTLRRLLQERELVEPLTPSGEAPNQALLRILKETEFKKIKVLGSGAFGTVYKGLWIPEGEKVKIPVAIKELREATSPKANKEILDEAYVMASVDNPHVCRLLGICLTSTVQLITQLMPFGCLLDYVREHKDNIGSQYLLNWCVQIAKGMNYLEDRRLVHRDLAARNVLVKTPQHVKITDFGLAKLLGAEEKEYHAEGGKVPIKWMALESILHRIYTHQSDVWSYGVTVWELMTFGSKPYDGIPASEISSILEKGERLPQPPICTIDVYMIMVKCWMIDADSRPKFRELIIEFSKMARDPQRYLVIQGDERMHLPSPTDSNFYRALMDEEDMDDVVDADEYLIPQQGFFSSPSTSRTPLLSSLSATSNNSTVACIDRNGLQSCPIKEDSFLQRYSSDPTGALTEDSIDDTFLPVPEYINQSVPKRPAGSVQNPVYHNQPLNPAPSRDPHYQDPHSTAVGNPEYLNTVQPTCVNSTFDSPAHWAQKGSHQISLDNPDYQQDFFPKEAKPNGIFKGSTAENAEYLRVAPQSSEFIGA

First: CCN(CC)CCNc1ncnc(N(C)c2cccc(Cl)c2)n1
Second: CN(c1cccc(Cl)c1)c1ncnc(NCCOCCO)n1
The IC50 of the first is lower: 0.4 to 2.4 µg/mL (≈ 1.19 to 7.17 µM) for the first, > 4.5 µg/mL for the second.

COc1cc(Nc2ncnc(-c3cccnc3Nc3cccc(Oc4ccccc4)c3)n2)cc(OC)c1OC and COc1cc(Nc2ncnc(-c3cccnc3Nc3ccccc3)n2)cc(OC)c1OC cannot be ordered by IC50: > 4.5 µg/mL for the first, > 4.5 µg/mL for the second.

First: O=c1[nH]c2ccccc2n1-c1ncnc(Nc2ccc3ncccc3c2)n1
Second: O=c1[nH]c2ccccc2n1-c1ncnc(Nc2cccc(-c3cnco3)c2)n1
The IC50 of the first is higher: 3.5 to 4.5 µg/mL (≈ 9.85 to 12.7 µM) for the first, 0.4 to 2.4 µg/mL (≈ 1.08 to 6.46 µM) for the second.

First: COc1ccc(Nc2ncnc(Nc3ccc(Br)cc3F)n2)cc1OC
Second: COc1ccc(Nc2ncnc(Nc3cccc(Br)c3)n2)cc1OC
The IC50 of the first is higher: 2.4 to 3.5 µg/mL (≈ 5.71 to 8.33 µM) for the first, < 0.4 µg/mL for the second.

First: Nc1nc2ccccc2n1-c1ncnc(Nc2ccc(S(N)(=O)=O)cc2)n1
Second: Nc1nc2ccccc2n1-c1ncnc(Nc2ccc(-c3cnco3)cc2)n1
The IC50 of the first is higher: > 4.5 µg/mL for the first, 0.4 to 2.4 µg/mL (≈ 1.08 to 6.48 µM) for the second.

First: COc1ccc(Nc2ncnc(NCc3ccc(C)c(Cl)c3)n2)cc1OC
Second: COc1ccc(Nc2ncnc(NCc3cccc(Cl)c3)n2)cc1OC
The IC50 of the first is higher: > 4.5 µg/mL for the first, 0.4 to 2.4 µg/mL (≈ 1.08 to 6.45 µM) for the second.

NS(=O)(=O)c1ccc(CNc2ncnc(-n3c(=O)[nH]c4ccccc43)n2)cc1 and O=c1[nH]c2ccccc2n1-c1ncnc(Nc2ccc(C(F)(F)F)cc2)n1 cannot be ordered by IC50: > 4.5 µg/mL for the first, > 4.5 µg/mL for the second.

COc1ccc(Nc2ncnc(N(C)c3ccc(Cl)cc3)n2)cc1OC and CN(c1cccc(Cl)c1)c1ncnc(Nc2ccc(F)c(Cl)c2)n1 cannot be ordered by IC50: < 0.4 µg/mL for the first, < 0.4 µg/mL for the second.

COc1cc(Nc2ncnc(-c3cccnc3Nc3cccc(C#N)c3)n2)cc(OC)c1OC and COc1cc(Nc2ncnc(-c3cccnc3NCc3ccccc3F)n2)cc(OC)c1OC cannot be ordered by IC50: > 4.5 µg/mL for the first, > 4.5 µg/mL for the second.

FC(F)C(F)(F)Oc1cccc(Nc2ncnc(-c3ccnc(N4CCCCC4)c3)n2)c1 and OCCCNc1cc(-c2ncnc(Nc3cccc(OC(F)(F)C(F)F)c3)n2)ccn1 cannot be ordered by IC50: > 4.5 µg/mL for the first, > 4.5 µg/mL for the second.

First: COc1ncnc(Nc2cc(OC)c(OC)c(OC)c2)n1
Second: COc1cc(Nc2ncnc(-n3ccnc3Cl)n2)cc(OC)c1OC
The IC50 of the first is higher: > 4.5 µg/mL for the first, 0.4 to 2.4 µg/mL (≈ 1.1 to 6.62 µM) for the second.

Fc1ccccc1Nc1ncnc(-c2ccccc2)n1 and Nc1ccc(Nc2ncnc(-c3ccccc3)n2)cc1 cannot be ordered by IC50: > 4.5 µg/mL for the first, > 4.5 µg/mL for the second.

Going from COc1cccc(CCNc2ncnc(Nc3ccc4c(cnn4Cc4ccccc4)c3)n2)c1OC to Cc1cccc(Nc2ncnc(Nc3ccc4c(cnn4Cc4ccccc4)c3)n2)c1, the IC50 falls from > 4.5 µg/mL to < 0.4 µg/mL.

COc1cc(Nc2ncnc(-n3c(N[C@H](CO)c4ccccc4)nc4ccccc43)n2)cc(OC)c1OC and COc1cc(Nc2ncnc(-n3c(NC(C)(C)c4ccccc4)nc4ccccc43)n2)cc(OC)c1OC cannot be ordered by IC50: > 4.5 µg/mL for the first, > 4.5 µg/mL for the second.

First: COc1cc(Nc2ncnc(Nc3cccc(OCc4ccccc4)c3)n2)cc(OC)c1OC
Second: COc1cc(Nc2ncnc(Nc3ccc(N)cc3)n2)cc(OC)c1OC
The IC50 of the first is higher: > 4.5 µg/mL for the first, 0.4 to 2.4 µg/mL (≈ 1.09 to 6.51 µM) for the second.

CN(c1cccc(Cl)c1)c1ncnc(Nc2cccc(Cc3nnn[nH]3)c2)n1 and CN(c1cccc(Cl)c1)c1ncnc(Nc2cccc(Cn3ccnn3)c2)n1 cannot be ordered by IC50: < 0.4 µg/mL for the first, < 0.4 µg/mL for the second.

First: Cc1ccc2c(c1)CCCN2c1ncnc(Nc2cccc(Cc3nnn[nH]3)c2)n1
Second: Cc1ccc2c(c1)CCCN2c1ncnc(Nc2cccc(Cl)c2C)n1
The IC50 of the first is lower: < 0.4 µg/mL for the first, 2.4 to 3.5 µg/mL (≈ 6.56 to 9.57 µM) for the second.

Compared with NC(=O)[C@H](CO)Nc1ncnc(-n2c(=O)[nH]c3ccccc32)n1, COc1cc(Nc2ncnc(-n3c(=O)[nH]c4ccccc43)n2)cc(OC)c1OC is lower in IC50: > 4.5 µg/mL for the first, 3.5 to 4.5 µg/mL (≈ 8.87 to 11.4 µM) for the second.

Compared with CC(=O)N1CCc2cc(Nc3ncnc(N4CCCc5cc(C)ccc54)n3)ccc21, CCN(CC)c1ccc(Nc2ncnc(N3CCCc4cc(C)ccc43)n2)cc1 is higher in IC50: < 0.4 µg/mL for the first, > 4.5 µg/mL for the second.

COc1cc(Nc2ncnc(-n3c(NCc4ccncc4)nc4ccccc43)n2)cc(OC)c1OC and COc1cc(Nc2ncnc(-n3c(NCCc4ccncc4)nc4ccccc43)n2)cc(OC)c1OC cannot be ordered by IC50: > 4.5 µg/mL for the first, > 4.5 µg/mL for the second.

COc1ccc(Nc2nc3ccccc3n2-c2ncnc(Nc3cc(OC)c(OC)c(OC)c3)n2)cc1 and COc1cc(Nc2ncnc(-n3c(Nc4ccc(Cl)cc4)nc4ccccc43)n2)cc(OC)c1OC cannot be ordered by IC50: > 4.5 µg/mL for the first, > 4.5 µg/mL for the second.

Clc1cccc(Nc2ncnc(Nc3ccc4[nH]ncc4c3)n2)c1 and Cc1cccc(Nc2ncnc(Nc3cc(-c4ccccc4)n[nH]3)n2)c1 cannot be ordered by IC50: < 0.4 µg/mL for the first, < 0.4 µg/mL for the second.

First: Cc1ccc2c(c1)CCCN2c1ncnc(NCCc2c[nH]c3ccccc23)n1
Second: COCCCNc1ncnc(N2CCCc3cc(C)ccc32)n1
The IC50 of the first is higher: > 4.5 µg/mL for the first, 3.5 to 4.5 µg/mL (≈ 11.2 to 14.4 µM) for the second.

Compared with c1coc(-c2cc(Nc3ncnc(Nc4ccc(-c5csnn5)cc4)n3)n[nH]2)c1, COC(=O)c1cccc(Nc2ncnc(Nc3cc(-c4ccco4)n[nH]3)n2)c1 is higher in IC50: 0.4 to 2.4 µg/mL (≈ 0.991 to 5.95 µM) for the first, > 4.5 µg/mL for the second.

First: c1cc(Cn2ccnn2)cc(Nc2ncnc(-n3c(Nc4ccc5[nH]ccc5c4)nc4ccccc43)n2)c1
Second: c1ccc(CNc2ncccc2-c2ncnc(Nc3cccc(Cn4ccnn4)c3)n2)cc1
The IC50 of the first is higher: 2.4 to 3.5 µg/mL (≈ 4.8 to 7.01 µM) for the first, 0.4 to 2.4 µg/mL (≈ 0.918 to 5.51 µM) for the second.

COc1cc(Nc2ncnc(-n3c(NCc4ccc(Cl)cc4)nc4ccccc43)n2)cc(OC)c1OC and COc1cc(Nc2ncnc(-n3c(NCc4ccc(Cl)cc4F)nc4ccccc43)n2)cc(OC)c1OC cannot be ordered by IC50: > 4.5 µg/mL for the first, > 4.5 µg/mL for the second.

CN(c1cccc(Cl)c1)c1ncnc(Nc2ccncc2)n1 and COc1cc(Nc2ncnc(N(C)c3cccc(Cl)c3)n2)cc2ccccc12 cannot be ordered by IC50: < 0.4 µg/mL for the first, < 0.4 µg/mL for the second.

First: COC(=O)Cc1cccc(Nc2ncnc(Nc3ccc(C)c(O)c3)n2)c1
Second: COc1ccc(Nc2ncnc(Nc3ccc4c(c3)C(=O)OC4)n2)cc1OC
The IC50 of the first is lower: 0.4 to 2.4 µg/mL (≈ 1.09 to 6.57 µM) for the first, 2.4 to 3.5 µg/mL (≈ 6.33 to 9.23 µM) for the second.

c1csc(-c2ncnc(Nc3ccc4c(c3)OCO4)n2)c1 and c1csc(-c2ncnc(Nc3ccc(N4CCOCC4)cc3)n2)c1 cannot be ordered by IC50: > 4.5 µg/mL for the first, > 4.5 µg/mL for the second.

COc1cc(Nc2ncnc(N3CCOCC3)n2)cc(OC)c1OC and COc1cc(Nc2ncnc(N3CCc4cc([N+](=O)[O-])ccc43)n2)cc(OC)c1OC cannot be ordered by IC50: > 4.5 µg/mL for the first, > 4.5 µg/mL for the second.

COc1cc(C)c(Nc2ncnc(Nc3cc(-c4ccco4)n[nH]3)n2)cc1OC and COc1cc(C)c(Nc2ncnc(Nc3cc(-c4ccccc4)n[nH]3)n2)cc1OC fall in the same range of IC50: 0.4 to 2.4 µg/mL (≈ 1.02 to 6.1 µM) for the first, 0.4 to 2.4 µg/mL (≈ 0.991 to 5.95 µM) for the second.

First: COc1cc(Nc2ncnc(-n3c(NCc4ccccn4)nc4ccccc43)n2)cc(OC)c1OCCn1ccnn1
Second: COc1cc(Nc2ncnc(-n3c(NCc4cccc(F)c4)nc4ccccc43)n2)cc(OC)c1OC
The IC50 of the first is higher: > 4.5 µg/mL for the first, 3.5 to 4.5 µg/mL (≈ 6.98 to 8.97 µM) for the second.

COc1cc(Nc2ncnc(-c3cccnc3NCc3ccccc3OC(F)(F)F)n2)cc(OC)c1OC and COc1cc(Nc2ncnc(-c3cccnc3NC(C)c3cccc4ccccc34)n2)cc(OC)c1OC (configuration not stated) cannot be ordered by IC50: > 4.5 µg/mL for the first, > 4.5 µg/mL for the second.

First: COc1cc(Nc2ncnc(Nc3ccc(Br)cc3)n2)cc(OC)c1OC
Second: COc1cc(Nc2ncnc(Nc3ccc(N(C)C)cc3)n2)cc(OC)c1OC
The IC50 of the first is lower: 0.4 to 2.4 µg/mL (≈ 0.925 to 5.55 µM) for the first, 2.4 to 3.5 µg/mL (≈ 6.05 to 8.83 µM) for the second.

First: CC(C)(C)c1cc(Nc2ncnc(Nc3ccc(CC(=O)O)cc3)n2)[nH]n1
Second: CC(C)(C)OC(=O)NCc1cccc(Nc2ncnc(Nc3cc(C(C)(C)C)n[nH]3)n2)c1
The IC50 of the first is lower: 0.4 to 2.4 µg/mL (≈ 1.09 to 6.53 µM) for the first, > 4.5 µg/mL for the second.

Nc1ncnc(Nc2cccc(Nc3ncnc(N)n3)c2)n1 and COc1ccc(Nc2ncnc(Nc3ccc(OC)c(OC)c3)n2)cc1OC cannot be ordered by IC50: > 4.5 µg/mL for the first, > 4.5 µg/mL for the second.

First: c1ccc(Cn2ncc3cc(Nc4ncnc(NCCN5CCCC5)n4)ccc32)cc1
Second: Clc1cc(Nc2ncnc(Nc3ccc4c(cnn4Cc4ccccc4)c3)n2)cc(Cl)c1Cl
The IC50 of the first is higher: > 4.5 µg/mL for the first, 0.4 to 2.4 µg/mL (≈ 0.805 to 4.83 µM) for the second.

Nc1ncnc(-n2c(N)nc3ccccc32)n1 and COc1cc(Nc2ncnc(-n3c(N)nc4ccccc43)n2)cc(OC)c1OC cannot be ordered by IC50: > 4.5 µg/mL for the first, > 4.5 µg/mL for the second.

First: CCN(CC)CCOc1cc(Nc2ncnc(-n3c(N)nc4ccccc43)n2)ccc1OC
Second: COc1cc(Nc2ncnc(-n3c(NCc4cccc(Br)c4)nc4ccccc43)n2)cc(OC)c1OC
The IC50 of the first is higher: > 4.5 µg/mL for the first, 3.5 to 4.5 µg/mL (≈ 6.22 to 8 µM) for the second.

COC(=O)c1ccc(-c2cc(Nc3ncnc(NCCCO)n3)[nH]n2)cc1 and Cc1ccc2c(c1)CCCN2c1ncnc(NCCCn2ccnc2)n1 cannot be ordered by IC50: > 4.5 µg/mL for the first, > 4.5 µg/mL for the second.

Brc1ccc(Nc2ncnc(-n3cccc3)n2)cc1 and Clc1ncnc(Nc2ccc(OCc3ccccc3)cc2)n1 cannot be ordered by IC50: > 4.5 µg/mL for the first, > 4.5 µg/mL for the second.

First: COc1ccc(Nc2ncnc(Nc3ccc(OCc4ccccc4)cc3)n2)cc1
Second: NC(=O)Cc1cccc(Nc2ncnc(-n3c(NCc4ccccc4)nc4ccccc43)n2)c1
The IC50 of the first is higher: > 4.5 µg/mL for the first, < 0.4 µg/mL for the second.

Compared with COc1cc(Nc2ncnc(-c3cccnc3NC3CCCc4ccccc43)n2)cc(OC)c1OC (configuration not stated), COc1cc(Nc2ncnc(N[C@@H]3CCCc4ccccc43)n2)cc(OC)c1OC is lower in IC50: 3.5 to 4.5 µg/mL (≈ 7.22 to 9.29 µM) for the first, 0.4 to 2.4 µg/mL (≈ 0.982 to 5.89 µM) for the second.

First: COc1cc(Nc2ncnc(-n3c(Nc4ccc5[nH]ncc5c4)nc4ccccc43)n2)cc(OC)c1OC
Second: COc1ccc([C@@H](C)Nc2nc3ccccc3n2-c2ncnc(Nc3cc(OC)c(OC)c(OC)c3)n2)cc1
The IC50 of the first is lower: 3.5 to 4.5 µg/mL (≈ 6.87 to 8.83 µM) for the first, > 4.5 µg/mL for the second.

Compared with COc1cc(Nc2ncnc(-n3ncc(-c4ccccc4)c3N)n2)cc(OC)c1OC, COc1cc(Nc2ncnc(-n3ccc4cc(Cl)ccc43)n2)cc(OC)c1OC is higher in IC50: 2.4 to 3.5 µg/mL (≈ 5.72 to 8.34 µM) for the first, > 4.5 µg/mL for the second.

Compared with COc1cc(Nc2ncnc(Nc3ncnc4[nH]cnc34)n2)cc(OC)c1OC, COc1cc(Nc2ncnc(N(CC(=O)OC(C)(C)C)c3ccc4c(c3)OCO4)n2)cc(OC)c1OC is lower in IC50: > 4.5 µg/mL for the first, 2.4 to 3.5 µg/mL (≈ 4.69 to 6.84 µM) for the second.

Source: the Kinase Knowledgebase extract (Sharma et al. 2016)
